Assay results as given in US11419869B2, “Dosage forms and regimens for amino acid compounds” (Pliant Therapeutics, Inc., priority 2019, dated 2022).

How the values were obtained:
[1] = tested on: IPF-derived lung fibroblasts; assay: cell adhesion in IPF-derived lung fibroblasts (FIG. 3B); format: cell-based
[2] = target: recombinant human integrin αvβ6 (Homo sapiens (Human), UniProt P06756+P18564); assay: Solid Phase Integrin αvβ6 Binding Assay (Examples B1, B2); details: TGFβ1 LAP ligand, values given in four ranges, read-out: αvβ6 Inhibition IC50 (nM)-range
Sequence of recombinant human integrin αvβ6 (P06756 31-992): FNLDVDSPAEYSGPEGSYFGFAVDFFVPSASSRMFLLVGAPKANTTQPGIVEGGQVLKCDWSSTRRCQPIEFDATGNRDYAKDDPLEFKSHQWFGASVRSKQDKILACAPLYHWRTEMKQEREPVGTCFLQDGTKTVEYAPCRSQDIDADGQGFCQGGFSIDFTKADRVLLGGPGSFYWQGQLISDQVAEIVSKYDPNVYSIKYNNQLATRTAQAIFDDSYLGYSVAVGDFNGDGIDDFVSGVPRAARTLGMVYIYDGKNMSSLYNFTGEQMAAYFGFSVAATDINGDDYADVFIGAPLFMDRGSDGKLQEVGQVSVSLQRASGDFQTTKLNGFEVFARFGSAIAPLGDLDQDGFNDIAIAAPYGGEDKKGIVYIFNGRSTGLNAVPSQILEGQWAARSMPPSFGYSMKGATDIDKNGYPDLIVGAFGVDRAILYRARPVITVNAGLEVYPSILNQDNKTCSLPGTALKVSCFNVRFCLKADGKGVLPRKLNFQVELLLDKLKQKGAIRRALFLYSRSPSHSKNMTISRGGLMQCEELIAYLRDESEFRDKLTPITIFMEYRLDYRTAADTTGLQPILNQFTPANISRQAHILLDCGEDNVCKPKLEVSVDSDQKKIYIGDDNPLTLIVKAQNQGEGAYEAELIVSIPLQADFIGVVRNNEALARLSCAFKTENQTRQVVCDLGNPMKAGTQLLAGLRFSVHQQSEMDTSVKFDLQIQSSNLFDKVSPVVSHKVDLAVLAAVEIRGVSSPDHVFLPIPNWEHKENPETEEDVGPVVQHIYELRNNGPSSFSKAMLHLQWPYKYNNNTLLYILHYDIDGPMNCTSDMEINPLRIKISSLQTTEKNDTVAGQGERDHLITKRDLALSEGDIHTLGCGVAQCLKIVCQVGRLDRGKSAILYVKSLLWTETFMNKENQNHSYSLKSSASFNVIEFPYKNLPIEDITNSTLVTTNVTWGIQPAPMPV
Sequence of recombinant human integrin αvβ6 (P18564 22-707): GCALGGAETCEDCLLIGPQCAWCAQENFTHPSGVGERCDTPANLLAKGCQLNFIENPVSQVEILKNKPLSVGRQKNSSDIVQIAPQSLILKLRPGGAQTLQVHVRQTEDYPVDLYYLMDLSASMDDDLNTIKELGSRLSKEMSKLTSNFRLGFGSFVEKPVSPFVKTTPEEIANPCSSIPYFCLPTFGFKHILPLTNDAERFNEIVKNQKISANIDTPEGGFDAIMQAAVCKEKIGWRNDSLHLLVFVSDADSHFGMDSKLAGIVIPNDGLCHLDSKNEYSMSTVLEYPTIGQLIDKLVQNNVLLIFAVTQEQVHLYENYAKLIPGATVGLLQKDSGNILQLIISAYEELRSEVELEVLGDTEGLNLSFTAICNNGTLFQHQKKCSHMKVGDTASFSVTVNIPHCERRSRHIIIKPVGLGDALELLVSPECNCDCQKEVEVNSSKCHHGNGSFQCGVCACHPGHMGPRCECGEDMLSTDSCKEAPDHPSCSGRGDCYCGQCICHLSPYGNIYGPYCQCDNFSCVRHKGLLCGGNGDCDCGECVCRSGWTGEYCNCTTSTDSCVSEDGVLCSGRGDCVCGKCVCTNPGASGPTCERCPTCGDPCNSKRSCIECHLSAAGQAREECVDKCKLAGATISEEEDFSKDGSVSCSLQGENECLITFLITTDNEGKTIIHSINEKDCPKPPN
Method in brief: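 Plates coated with recombinant human αvβ6 (2 μg/mL) compete compound against recombinant TGFβ1 LAP (0.67 μg/mL) in TBS binding buffer with 0.5 mM MnCl2, 2 h at 25 °C. Bound LAP detected with biotin-anti-hLAP and peroxidase-streptavidin; IC50 by four-parameter logistic regression.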

[3] = tested on: COL1A1 expression; assay: Precision cut lung slices from human IPF explants, COL1A1 expression (Example B11); format: cell-based
From the text: Explanted lung tissue was obtained from human IPF subjects and inflated with agarose as described in the preceding examples. Biopsy cores were obtained from the agarose-inflated lung tissue. The biopsy cores were subjected to precision slicing to obtain several hundred μm thick. Individual slices were distributed in a multiwell culture plate and cultured for […] under control (DMSO) and test compound conditions. The viability of the slices over the course of culturing was confirmed by WST-1 assay of mitochondrial activity.
PCLS from 5-7 idopathic pulmonary fibrosis (IPF) lung tissue samples were cultured for seven days with one of: DMSO; Compound 5 at 200 nM; nintedanib at 75 nM; pirfenidone at 50 μm; a combination of Compound 5 at 200 nM and nintedanib at 75 nM; a combination of Compound 5 at 200 nM and pirfenidone at […]; or an Alk5 inhibitor at 1 μm. […] FIG. 6D is a bar graph showing relative expression of COL1A1 in precision cut lung slices (PCLS) from idopathic pulmonary fibrosis (IPF) lung tissue upon exposure to Comopund 5, clinical standard of care compounds nintedanib (Nin) and pirfenidone (Pirf), and an ALK5 inhibitor, all versus DMSO control.
PCLS from a single IPF lung tissue sample were cultured for seven days with Compound 5 at concentrations of […], 2 nM, 60 nM, 200 nM, and 1 μM, along with 0.1% DMSO control and an Alk5 inhibitor at 1 μM. […] COL1A1 expression is also graphed for the PCLS in the presence of 0.1% DMSO control, and an Alk5 inhibitor at 1 μM.

## COCCN(CCCCc1ccc2c(n1)NCCC2)CC[C@H](Nc1ncnc2ccccc12)C(=O)O [Compound 5, (S)-4-((2-methoxyethyl) (4-(5,6,7,8-tetrahydro-1,8-naphthyridin-2-yl)butyl)amino)-2-(quinazolin-4-ylamino) butanoic acid]
[1]
  cell adhesion in the IPF-derived lung fibroblasts: substantially inhibited
[2]
  IC50: < 50 nM
[3]; PCLS from a single IPF lung sample, seven days, 200 pM to 1 μM, FIG. 6E
  COL1A1 expression, dose dependence: dose dependent reduction
[3]; PCLS from a single IPF lung sample, seven days, at ≥2 nM, FIG. 6E
  reduction in COL1A1 expression: ≥ 47 % reduction
[3]; human IPF slices, 3 days, 3G9 ≥400 ng/mL, compound 5 179 nM, ALK5 inhibitor 1 μM, FIG. 6C
  lung Col1a1 expression: substantial, statistically significant (p<0.01 vs vehicle) decrease
